The assay has as its target T1, truncated form of PTP1B (corresponding to the first 321 amino acids) (Homo sapiens, UniProt P18031).
T1 construct: truncated form of PTP1B (corresponding to the first 321 amino acids); made in house; host or cells: E. coli
T1 sequence (P18031 1-321): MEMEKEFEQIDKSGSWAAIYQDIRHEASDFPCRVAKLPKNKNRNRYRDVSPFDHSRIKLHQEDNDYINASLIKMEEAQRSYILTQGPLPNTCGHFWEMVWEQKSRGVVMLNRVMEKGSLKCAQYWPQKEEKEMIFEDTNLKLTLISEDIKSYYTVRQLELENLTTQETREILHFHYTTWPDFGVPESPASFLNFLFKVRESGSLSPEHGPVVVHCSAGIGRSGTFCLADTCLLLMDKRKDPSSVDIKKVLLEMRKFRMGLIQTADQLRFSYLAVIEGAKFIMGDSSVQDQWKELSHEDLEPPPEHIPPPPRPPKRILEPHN
The assay is described as follows: Inhibition of classical PTP1B, p-nitrophenyl phosphate enzyme assay. It counts as biochemical. The conditions noted are these: substrate p-nitrophenyl phosphate 0.16 to 10 mM; 100 mM sodium acetate pH 5.5; 25° C., 60 minutes; absorbance at 405 nm; read-out: PTP1B K1 values. Here is the method: These compounds were evaluated for biological activity with a truncated form of PTP1B (corresponding to the first 321 amino acids), which was expressed in E. coli and purified to apparent homogeneity using published procedures well-known to those skilled in the art. The enzyme reactions were carried out using standard conditions essentially as described by Burke et al. (Biochemistry 35; 15989-15996 (1996)). The assay conditions were as follows. Appropriate concentrations of the compounds of the invention were added to the reaction mixtures containing different concentrations of the substrate, p-nitrophenyl phosphate (range: 0.16 to 10 mM--final assay concentration). The buffer used was 100 mM sodium acetate pH 5.5, 50 mM sodium chloride, 0.1% (w/v) bovine serum albumin and 5 mM dithiothreitol (total volume […]). The reaction was started by addition of the enzyme and carried out in microliter plates at 25° C. for 60 minutes. The reactions were stopped by addition of NaOH. The enzyme activity was determined by measurement of the absorbance at 405 nm with appropriate corrections for absorbance at 405 nm of the compounds and p-nitrophenyl phosphate. The data were analyzed using nonlinear regression fit to classical Michaelis Menten enzyme kinetic models. Inhibition is expressed as Ki values in μM.

SMILES strings stand for the structures.

With `CCSc1nn(-c2ccc(OC)cc2)c(=O)c2c(N)scc12` [Example 2, 7-Amino-4-ethylsulfanyl-2-(4-methoxy-phenyl)thieno[3,4-d]pyridazin-1(2H)-one], the Ki was 2 µM.

Take `Nc1scc2c1c(=O)oc1ccc3ccccc3c12` [Example 3, 3-Amino4H-naphtho[2,1-b]thieno[3,4-d]pyran-4-one]: the Ki came out at 4 µM.

(Values after patent US6169087A, “Modulators of protein tyrosine phosphatases (PTPases)” (Novo Nordisk A/S, priority 1998, dated 2001).)
